The subject of series [1] is systemic mastocytosis (SM) patients. The series is described as follows: Phase II open-label study in SM patients. In kind it is in vivo, human. To be noted: 400 mg orally twice daily, first 23 pts, preliminary data. On the procedure:
A Phase II, open-label study was designed to evaluate the safety and efficacy of Compound (II) administered orally 400 mg twice daily. SM patients meeting specific disease criteria and with a clinical indication for treatment were enrolled. The results are based on preliminary data for the first 23 pts in this study. Results: The median age was 49 (range 33-78) yrs and the median time from diagnosis of SM was 27 (range 1 to 292) months. […] The median exposure to Compound (II) was 144 days. Treatment is ongoing for 18 (78%) pts; 5 (22%) discontinued, 3 (13%) for adverse events and 2 (9%) withdrew consent. Three (13%) responses were reported (2 incomplete remission and 1 minor response), based on serum tryptase, bone marrow mast cell counts and improvement of clinical symptoms.

The next series concerns GIST882 cells. The series is described as follows: GIST882 cell proliferation assay (ATPLite luminescent ATP detection). Format: cell-based. To be noted: Homo sapiens; GIST882 cells (KIT K-642-E), 70 h incubation, mean value; read-out: mean IC50, inhibition of proliferation of GIST882 cells. The procedure: The effects of compounds on viability and proliferation of the cells is determined using the luminescent ATP Detection assay kit ATPLite™ from Perkin Elmer Life Sciences (Cat. No: 6016947) according to the instructions of the suppliers. This assay system is based on the production of light (luminescence) caused by the reaction of ATP with added luciferase and D-luciferin.
GIST882, is a human gastrointestinal stromal tumor (GIST) cell line expressing an activating KIT mutation (exon 13, K-642-E) (Tuveson D A, Willis N A, Jacks T, Griffin J D, Singer S, Fletcher C D, Fletcher J A, Demetri G D, STI571 inactivation of the gastrointestinal stromal tumor c-KIT oncoprotein: biological and clinical implications, Oncogene, 2001 Aug. 16; 20(36):5054-8). The GIST882 cells are cultivated in RPMI 1640 (Invitromex, Cat. No: L0501), supplemented with 15% FCS, and 2 mM glutamine (Gibco). […]
GIST882 cells are seeded into black 96-well tissue culture plates (Packard) at a density of 10000 cells per well in 50 μL complete medium and incubated for one day in order to allow for attachment of the cells. […] Subsequently, 50 μL substrate solution (luciferase and D-luciferin) is added and after 5 min shaking and 10 min dark-adaptation of the plates, light emission was measured with a Packard TopCount. […]
(In general: In ATP-based viability assays light output follows the ATP content of the culture.)

Data on one compound can be found in US8673930B2, “Pyrimidylaminobenzamide derivatives for systemic mastocytosis” (Novartis AG, priority 2005, dated 2014).

Turning to `Cc1cn(-c2cc(NC(=O)c3ccc(C)c(Nc4nccc(-c5cccnc5)n4)c3)cc(C(F)(F)F)c2)cn1` [Compound (II), 4-methyl-3-[[4-(3-pyridinyl)-2-pyrimidinyl]amino]-N-[5-(4-methyl-1H-imidazol-1-yl)-3-(trifluoromethyl)phenyl]benzamide], the “discontinued for adverse events” value in series [1] (median exposure 144 days) is 13%. In series [1], the “safety and tolerability in pts with SM” value was “acceptable safety and tolerability profile”. For the same compound, in series [1] (2 incomplete remission and 1 minor response), the “responses (based on serum tryptase, bone marrow mast cell counts and improvement of clinical symptoms)” value was 13%. Besides, the IC50 in the series with GIST882 cells was less than 0.2 µM.
